Measurements reported in patent US8163929B2, “Dihydropyridone amides as P2X7 modulators” (Roche Palo Alto LLC, priority 2008, dated 2012).

Biological target: T1, P2X7 (UniProt Q99572)
T1 sequence (Q99572 1-595): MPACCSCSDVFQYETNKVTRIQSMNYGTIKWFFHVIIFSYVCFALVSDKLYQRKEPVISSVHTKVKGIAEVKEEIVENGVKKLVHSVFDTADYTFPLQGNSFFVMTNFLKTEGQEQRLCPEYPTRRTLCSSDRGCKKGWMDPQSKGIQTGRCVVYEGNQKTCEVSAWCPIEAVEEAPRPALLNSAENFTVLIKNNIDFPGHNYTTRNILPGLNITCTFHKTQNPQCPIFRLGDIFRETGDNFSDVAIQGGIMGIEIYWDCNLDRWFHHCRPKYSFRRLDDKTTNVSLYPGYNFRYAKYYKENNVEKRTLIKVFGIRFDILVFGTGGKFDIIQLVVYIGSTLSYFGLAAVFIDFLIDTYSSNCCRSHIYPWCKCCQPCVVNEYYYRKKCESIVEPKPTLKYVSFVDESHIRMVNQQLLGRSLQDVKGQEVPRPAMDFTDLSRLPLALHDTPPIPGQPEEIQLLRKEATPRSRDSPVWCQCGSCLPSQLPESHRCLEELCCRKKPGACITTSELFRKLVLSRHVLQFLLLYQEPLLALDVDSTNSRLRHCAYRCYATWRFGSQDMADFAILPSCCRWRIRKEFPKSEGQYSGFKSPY
Test: P2X7 activity of Table 1
Format: cell-based
Conditions: pIC50 values for P2X7
In short: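 FLIPR calcium flux with fluo-3 in 1321N1 cells expressing human P2X7 and HEK293 cells expressing rat P2X7, in HBSS with 2 mM CaCl2 and 2.5 mM probenecid. Antagonist pre-incubated 20 min at room temperature, then BzATP added (100 μM human, 5 μM rat). Peak response over 5 min normalised to 5 μM ionomycin.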

| pIC50 | Compound |
| --- | --- |
| 7.685 | Cc1ccc(-c2cc(C)n(CC(=O)NCCN(C)C)n2)cc1NC(=O)C1=CNC(=O)C[C@H]1c1ccc(F)cc1 [Compound 119, (S)-4-(4-Fluoro-phenyl)-6-oxo-1,4,5,6-tetrahydro-pyridine-3-carboxylic acid (5-{1-[(2-dimethylamino-ethylcarbamoyl)-methyl]-5-methyl-1H-pyrazol-3-yl}-2-methyl-phenyl)-amide] |
| 7.567 | Cc1ccc(-c2ccc(C)c(NC(=O)C3=CNC(=O)C[C@H]3c3ccc(F)cc3)c2)nn1 [Compound 44, (S)-4-(4-Fluoro-phenyl)-6-oxo-1,4,5,6-tetrahydro-pyridine-3-carboxylic acid [2-methyl-5-(6-methyl-pyridazin-3-yl)-phenyl]-amide] |
| 7.92 | Cc1ccc(-c2cc(C)n(CCO)n2)cc1NC(=O)C1=CNC(=O)C[C@H]1c1cccc(F)c1 [Compound 69, (S)-4-(3-Fluoro-phenyl)-6-oxo-1,4,5,6-tetrahydro-pyridine-3-carboxylic acid {5-[1-(2-hydroxy-ethyl)-5-methyl-1H-pyrazol-3-yl]-2-methyl-phenyl}-amide] |
| 7.76 | Cc1ccc(-n2ncc(=O)n(C)c2=O)cc1NC(=O)C1=CNC(=O)C[C@H]1c1ccc(F)cc1 [Compound 37, (S)-4-(4-Fluoro-phenyl)-6-oxo-1,4,5,6-tetrahydro-pyridine-3-carboxylic acid [2-methyl-5-(4-methyl-3,5-dioxo-4,5-dihydro-3H-[1,2,4]triazin-2-yl)-phenyl]-amide] |
| 7.643 | Cc1ccc(-c2cc(C)n(CC(C)O)n2)cc1NC(=O)C1=CNC(=O)C[C@H]1c1ccc(F)cc1 (stereo partly drawn) [Compound 7, (S)-4-(4-Fluoro-phenyl)-6-oxo-1,4,5,6-tetrahydro-pyridine-3-carboxylic acid {5-[1-(2-hydroxy-propyl)-5-methyl-1H-pyrazol-3-yl]-2-methyl-phenyl}-amide] |
| 7.87 | Cc1ccc(-c2ncccn2)cc1NC(=O)C1=CNC(=O)C[C@H]1c1ccc(F)cc1 [Compound 51, (S)-4-(4-Fluoro-phenyl)-6-oxo-1,4,5,6-tetrahydro-pyridine-3-carboxylic acid (2-methyl-5-pyrimidin-2-yl-phenyl)-amide] |

Continued, compound first:

| Compound | pIC50 |
| --- | --- |
| Cc1cc(-c2ccc(Cl)c(NC(=O)C3=CN(C)C(=O)C[C@H]3c3ccc(F)cc3)c2)nn1CCO [Compound 115, (S)-4-(4-Fluoro-phenyl)-1-methyl-6-oxo-1,4,5,6-tetrahydro-pyridine-3-carboxylic acid {2-chloro-5-[1-(2-hydroxy-ethyl)-5-methyl-1H-pyrazol-3-yl]-phenyl}-amide] | 7.04 |
| Cc1ccc(-c2ccn(CCO)n2)cc1NC(=O)C1=CNC(=O)C[C@H]1c1cccc(Cl)c1 (stereo in doubt) [Compound 114, 4-(3-Chloro-phenyl)-6-oxo-1,4,5,6-tetrahydro-pyridine-3-carboxylic acid {5-[1-(2-hydroxy-ethyl)-1H-pyrazol-3-yl]-2-methyl-phenyl}-amide] | 7.56 |
| Cc1ccc(-n2ncccc2=O)cc1NC(=O)C1=CN(C)C(=O)C[C@H]1c1ccc(F)cc1 [Compound 110, (S)-4-(4-Fluoro-phenyl)-1-methyl-6-oxo-1,4,5,6-tetrahydro-pyridine-3-carboxylic acid [2-methyl-5-(6-oxo-6H-pyridazin-1-yl)-phenyl]-amide] | 7.17 |
| Cc1ccc(-c2cccn(C)c2=O)cc1NC(=O)C1=CN(C)C(=O)C[C@H]1c1ccc(F)cc1 [Compound 120, (S)-4-(4-Fluoro-phenyl)-1-methyl-6-oxo-1,4,5,6-tetrahydro-pyridine-3-carboxylic acid [2-methyl-5-(1-methyl-2-oxo-1,2-dihydro-pyridin-3-yl)-phenyl]-amide] | 7.855 |
